According to EP0804400B1, “HYDROFORMYLATION OF A MULTI-COMPONENT FEED STREAM” (ExxonMobil Research and Engineering Company, priority 1995, dated 1996):
Like-named read-outs stand apart in the source and are kept apart here.

What was measured:
[1] = cited from earlier work; for Xi x 10^4: mol fraction; for Ci: molarity
[2] = 0.1 MPa partial pressure, 22 °C; for Xi x 10^4: mol fraction; for Ci: molarity
Experimental: (§1) In the autoclave experiments the solvent was thoroughly degassed in the autoclave before the gas was charged without stirring. After a short temperature equilibration the pressure and temperature in the autoclave was recorded and then the solvent was stirred until no further pressure drop could be observed. From the known gas volume and pressure drop the amount of dissolved gas was calculated. In the ^1H NMR experiments either the solvent (propanal) or hexamethylbenzene served as an internal standard.

[3] = 0.1 MPa partial pressure
Experimental: as §1

[4] = solvent Formaldehyde diethyl acetal, 30 °C, ref. g
[5] = solvent Propionaldehyde, 100 °C, ref. k
[6] = mol fraction of gas in liquid phase, solvent Tetraglyme containing 7.8 w.% PPh3, 20 °C
[7] = mol fraction, solvent Tetraglyme containing 7.8 w.% PPh3, 100 °C
[8] = molarity of gas in liquid phase, solvent Tetraglyme containing 7.8 w.% PPh3, 20 °C
[9] = molarity, solvent Tetraglyme containing 7.8 w.% PPh3, 100 °C
[10] = solvent 1-Butyl acetate, 18 °C, ref. l
[11] = solvent 1-Propyl acetate, 18 °C, ref. l
[12] = solvent 2-Ethylhexanol-1, 100 °C, ref. w
[13] = solvent 2-Methylbutanal, 30 °C, ref. e
[14] = solvent 2-Methylbutanal, 100 °C, ref. e
[15] = solvent 2-Propyl acetate, 18 °C, ref. l
[16] = solvent Ethyl acetate, 18 °C, ref. l
[17] = solvent Ethylene glycol dimethyl (ether), 100 °C, ref. t
[18] = solvent Methyl acetate, 18 °C, ref. l
[19] = solvent Methyl butanoate, 18 °C, ref. l
[20] = solvent Methyl propanoate, 18 °C, ref. l
[21] = solvent cell prints 'ether' (wrapped line), 100 °C, ref. v

C [Methane]
Xi x 10^4 [1, 4]: 37.40
Xi x 10^4 [1, 5]: 20.90

C#C [Acetylene]
Xi x 10^4 ([2]; solvent Propanal): 402.0
Ci ([2]; solvent Propanal): 557.7 mmol/L
Xi x 10^4 [3, 6]: 1224.0
Xi x 10^4 [3, 7]: 242.0
Xi x 10^4 ([3]; mol fraction, solvent Toluene, 20 °C): 246.7
Xi x 10^4 ([3]; mol fraction, solvent Toluene, 100 °C): 178.0
Ci [3, 8]: 577.0 mmol/L
Ci [3, 9]: 103.0 mmol/L
Ci ([3]; molarity, solvent Toluene, 20 °C): 220.6 mmol/L
Ci ([3]; molarity, solvent Toluene, 100 °C): 147.7 mmol/L

C=C [Ethylene]
Xi x 10^4 ([2]; solvent Propanal): 115.0
Ci ([2]; solvent Propanal): 159.6 mmol/L
Xi x 10^4 [3, 6]: 134.0
Xi x 10^4 [3, 7]: 76.0
Ci [3, 8]: 60.0 mmol/L
Ci [3, 9]: 32.6 mmol/L
Xi x 10^4 [1, 4]: 185.00
Ci [1, 4]: 174.53 mmol/L

CC [Ethane]
Xi x 10^4 [1, 4]: 214.00
Ci [1, 4]: 201.89 mmol/L

[HH] [Hydrogen]
Xi x 10^4 ([2]; solvent d^8-Toluene): 3.5
Xi x 10^4 [3, 6]: 5.1
Xi x 10^4 [3, 7]: 7.3
Ci [3, 8]: 2.2 mmol/L
Ci [3, 9]: 3.0 mmol/L
Xi x 10^4 [1, 10]: 4.29
Xi x 10^4 [1, 11]: 4.15
Xi x 10^4 [1, 12]: 5.85
Xi x 10^4 [1, 13]: 8.55
Xi x 10^4 [1, 14]: 11.45
Xi x 10^4 [1, 15]: 4.83
Xi x 10^4 [1, 16]: 3.46
Xi x 10^4 [1, 17]: 6.20
Xi x 10^4 [1, 4]: 5.37
Xi x 10^4 [1, 18]: 2.51
Xi x 10^4 [1, 19]: 4.67
Xi x 10^4 [1, 20]: 3.77
Xi x 10^4 [1, 5]: 5.95
Xi x 10^4 [1, 21]: 6.58
Xi x 10^4 ([1]; solvent printed 2-Ethylhexanol-1 (second line), 100 °C, ref. v): 5.97
Ci [1, 10]: 3.64 mmol/L
Ci [1, 11]: 3.99 mmol/L
Ci [1, 12]: 3.45 mmol/L
Ci [1, 15]: 4.64 mmol/L
Ci [1, 16]: 3.84 mmol/L
Ci [1, 17]: 5.32 mmol/L
Ci [1, 4]: 5.07 mmol/L
Ci [1, 18]: 3.30 mmol/L
Ci [1, 19]: 4.49 mmol/L
Ci [1, 20]: 4.19 mmol/L
Ci [1, 21]: 3.89 mmol/L

[C-]#[O+] [Carbon monoxide]
Xi x 10^4 [3, 6]: 11.3
Xi x 10^4 [3, 7]: 34.6
Ci [3, 8]: 4.9 mmol/L
Ci [3, 9]: 14.2 mmol/L
Xi x 10^4 [1, 13]: 10.96
Xi x 10^4 [1, 14]: 13.93
